According to BindingDB's records for doi:10.1016/j.ejmech.2017.10.076 (Wayne State University, 2018):

Columns and labels:
Histone deacetylase 6 = molecular target: T1, Histone deacetylase 6 (Homo sapiens, UniProt Q9UBN7); test: Inhibition of HDAC6 in human HeLa-S3 cell lysates preincubated for 15 mins followed by HDAC-Glo substrate addition measured after 30 to 40 mins by fluorimetric method
T1 sequence (Q9UBN7 whole entry): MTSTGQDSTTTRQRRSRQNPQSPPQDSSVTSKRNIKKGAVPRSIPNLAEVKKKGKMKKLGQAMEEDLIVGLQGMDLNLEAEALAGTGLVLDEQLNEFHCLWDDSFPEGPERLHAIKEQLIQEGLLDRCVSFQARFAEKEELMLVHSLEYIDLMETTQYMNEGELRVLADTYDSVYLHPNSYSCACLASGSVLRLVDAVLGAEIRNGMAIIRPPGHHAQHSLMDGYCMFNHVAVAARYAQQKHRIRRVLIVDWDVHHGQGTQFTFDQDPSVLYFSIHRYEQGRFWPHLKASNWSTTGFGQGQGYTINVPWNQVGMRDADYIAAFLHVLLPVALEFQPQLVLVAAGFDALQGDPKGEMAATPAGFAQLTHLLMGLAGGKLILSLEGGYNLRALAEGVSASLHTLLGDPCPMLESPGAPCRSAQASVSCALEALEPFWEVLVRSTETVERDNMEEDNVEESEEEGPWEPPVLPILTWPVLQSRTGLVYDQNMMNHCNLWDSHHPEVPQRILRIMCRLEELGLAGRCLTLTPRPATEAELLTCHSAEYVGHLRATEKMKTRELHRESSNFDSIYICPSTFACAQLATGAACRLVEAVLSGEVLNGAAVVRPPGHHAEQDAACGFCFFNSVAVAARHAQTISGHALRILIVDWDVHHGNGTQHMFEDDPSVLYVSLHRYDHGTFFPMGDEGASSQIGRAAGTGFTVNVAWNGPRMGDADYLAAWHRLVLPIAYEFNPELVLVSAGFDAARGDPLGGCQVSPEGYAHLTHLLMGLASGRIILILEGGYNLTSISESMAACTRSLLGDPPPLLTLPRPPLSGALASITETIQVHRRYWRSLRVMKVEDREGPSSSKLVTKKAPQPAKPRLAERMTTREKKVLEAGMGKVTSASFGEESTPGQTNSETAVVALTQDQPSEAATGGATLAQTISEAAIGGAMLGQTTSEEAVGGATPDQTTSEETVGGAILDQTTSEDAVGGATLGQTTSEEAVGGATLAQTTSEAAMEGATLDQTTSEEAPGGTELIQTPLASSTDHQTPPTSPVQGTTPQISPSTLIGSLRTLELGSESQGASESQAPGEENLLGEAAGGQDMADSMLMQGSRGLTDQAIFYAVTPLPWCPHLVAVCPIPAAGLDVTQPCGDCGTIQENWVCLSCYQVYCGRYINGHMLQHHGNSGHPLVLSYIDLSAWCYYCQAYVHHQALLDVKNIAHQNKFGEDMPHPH

Histone deacetylase 1 = Histone deacetylase 1 (Homo sapiens, UniProt Q13547); test: Inhibition of HDAC1 in human HeLa-S3 cell lysates preincubated for 15 mins followed by HDAC-Glo substrate addition measured after 30 to 40 mins by fluorimetric method
Histone deacetylase 1, sequence (Q13547 whole entry): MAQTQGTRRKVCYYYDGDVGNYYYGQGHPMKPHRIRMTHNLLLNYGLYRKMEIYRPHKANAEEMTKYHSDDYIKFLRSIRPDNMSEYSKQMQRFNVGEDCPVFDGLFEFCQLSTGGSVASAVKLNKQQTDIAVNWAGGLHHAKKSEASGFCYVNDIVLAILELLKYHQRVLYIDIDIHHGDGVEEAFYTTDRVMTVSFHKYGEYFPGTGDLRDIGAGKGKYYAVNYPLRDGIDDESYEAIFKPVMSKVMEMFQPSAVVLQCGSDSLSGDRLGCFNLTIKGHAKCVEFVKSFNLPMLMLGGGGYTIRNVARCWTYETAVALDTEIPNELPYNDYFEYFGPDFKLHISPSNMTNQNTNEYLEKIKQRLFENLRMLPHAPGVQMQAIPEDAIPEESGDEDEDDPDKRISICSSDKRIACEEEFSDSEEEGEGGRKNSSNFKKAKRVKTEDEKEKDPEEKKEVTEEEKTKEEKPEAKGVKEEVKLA

Histone deacetylase 3 = Histone deacetylase 3 (Homo sapiens, UniProt O15379); test: Inhibition of HDAC3 in human HeLa-S3 cell lysates preincubated for 15 mins followed by HDAC-Glo substrate addition measured after 30 to 40 mins by fluorimetric method
Histone deacetylase 3, sequence (O15379 whole entry): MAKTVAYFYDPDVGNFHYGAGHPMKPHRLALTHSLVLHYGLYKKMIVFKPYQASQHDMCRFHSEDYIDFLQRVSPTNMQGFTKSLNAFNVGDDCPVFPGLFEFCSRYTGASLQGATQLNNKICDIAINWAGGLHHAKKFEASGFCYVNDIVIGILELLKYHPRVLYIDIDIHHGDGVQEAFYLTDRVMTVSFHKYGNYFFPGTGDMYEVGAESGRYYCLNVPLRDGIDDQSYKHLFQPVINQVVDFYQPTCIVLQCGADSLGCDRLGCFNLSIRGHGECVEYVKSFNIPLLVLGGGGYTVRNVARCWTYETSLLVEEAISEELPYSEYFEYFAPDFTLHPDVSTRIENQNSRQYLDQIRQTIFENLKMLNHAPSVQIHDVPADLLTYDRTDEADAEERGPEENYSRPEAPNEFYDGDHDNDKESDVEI

Histone deacetylase 8 = molecular target: T2, Histone deacetylase 8 (Homo sapiens, UniProt Q9BY41); test: Inhibition of human recombinant full-length C-terminal His-tagged HDAC8 expressed in baculovirus infected Sf9 insect cell preincubated for 15 mins followed by HDAC-Glo substrate addition measured after 30 mins by fluorimetric method
T2 sequence (Q9BY41 whole entry): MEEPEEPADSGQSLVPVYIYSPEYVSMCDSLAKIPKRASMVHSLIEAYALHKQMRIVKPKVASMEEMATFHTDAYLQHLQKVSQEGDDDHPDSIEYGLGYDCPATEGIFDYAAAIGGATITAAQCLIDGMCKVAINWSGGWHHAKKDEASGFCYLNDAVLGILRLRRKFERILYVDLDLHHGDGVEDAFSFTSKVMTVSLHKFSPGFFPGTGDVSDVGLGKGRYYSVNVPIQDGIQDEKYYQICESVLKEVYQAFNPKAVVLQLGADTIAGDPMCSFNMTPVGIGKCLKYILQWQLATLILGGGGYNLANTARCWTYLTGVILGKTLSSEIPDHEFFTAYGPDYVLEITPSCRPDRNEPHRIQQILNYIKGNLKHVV

IC50 (Histone deacetylase 6): 0.11 µM
IC50 (Histone deacetylase 1): 11 µM
IC50 (Histone deacetylase 3): 23 µM
IC50 (Histone deacetylase 8): 0.29 µM
SMILES: O=C(CCC(CCCC(=O)Nc1ccccc1)c1ccccc1)NO (centres undefined)
